Experimental data taken from paper PMC7913927, “Leishmanicidal Activity of Betulin Derivatives in Leishmania amazonensis; Effect on Plasma and Mitochondrial Membrane Potential, and Macrophage Nitric Oxide and Superoxide Production” (Microorganisms, 2021).
Like-named read-outs stand apart in the source and are kept apart here.

Legend:
[1] = tested on: L. (L.) amazonensis LTB0016 promastigotes; assay: Promastigote in vitro susceptibility (Alamar Blue/resazurin), reference strain; assay type: cell-based, Leishmania amazonensis; conditions: for growth inhibition / inhibition at 50 µM: LTB0016, 50 µM; for inhibition at 50 µM: read-out: growth inhibition
Experimental: The fluorometric method of Alamar Blue® (resazurin) was used. Promastigotes grown in biphasic agar-blood medium, at the exponential phase of growth, were seeded in flat-bottom 96-well culture plates, at a cell density of 1 × 10^6 parasites mL^−1 (200,000 parasites/well), in 180 µL of RPMIc without phenol red. Subsequently, either a sole concentration (50 µM), or increasing concentrations of compounds or drugs were applied, according to each treatment group, in volumes of 2 µL. Plates were kept at 26 °C, in a humid chamber, for 72 h. […] Live parasites are metabolically active and capable of reducing non-fluorescent resazurin (blue) to fluorescent resorufin (red). Fluorescence intensity is directly proportional to the number of viable cells. […] At least two independent experiments were performed in duplicate. The effect of trivalent antimonial [SbIII, potassium antimonyl tartrate trihydrate, Sigma-Aldrich, (St. Louis, MO, USA)] was included as positive control of the assay.

[2] = tested on: J774.1 macrophages; assay: Cytotoxicity (Alamar Blue) in macrophages; assay type: cell-based, murine; conditions: 72 h
Experimental: (§1) In flat-bottom 96-well culture plates, J774.1 macrophages were seeded at a cell density of 5 × 10^4 mL^−1 (10,000 macrophages/well) in 200 µL of RPMIc. After 24 h at 37 °C, 5% CO2, medium was replaced by 180 µL of RPMIc, without phenol red, and increasing concentrations of test compounds in 2-µL volumes. […] At least two independent experiments were performed in duplicate. Based on the inhibition of cell growth caused by the tested compounds, the percentage of growth inhibition compared to untreated cells was calculated. […] Selectivity indices (SI) were calculated, dividing the macrophage CC50 by the parasites GI50 (SI = CC50/GI50).

[3] = tested on: L. (V.) braziliensis promastigotes, reference strain MHOM/BR/LTB300; conditions: cited from earlier work; for active concentration in L. (L.) braziliensis: reference strain MHOM/BR/LTB300
[4] = tested on: L. (L.) braziliensis MHOM/BR/LTB300; design: method as in PMID 25240731; conditions: cited from earlier work
[5] = Cytotoxicity (Alamar Blue) in macrophages; assay type: cell-based, murine; conditions: mouse, J774.1 macrophages
Experimental: as §1

[6] = tested on: L. (L.) amazonensis VE98MR promastigotes; assay: Promastigote in vitro susceptibility (Alamar Blue/resazurin), patient isolate VE98MR; assay type: cell-based, Leishmania amazonensis
Experimental: (§2) The fluorometric method of Alamar Blue® (resazurin) was used. Promastigotes grown in biphasic agar-blood medium, at the exponential phase of growth, were seeded in flat-bottom 96-well culture plates, at a cell density of 1 × 10^6 parasites mL^−1 (200,000 parasites/well), in 180 µL of RPMIc without phenol red. Subsequently, either a sole concentration (50 µM), or increasing concentrations of compounds or drugs were applied, according to each treatment group, in volumes of 2 µL. Plates were kept at 26 °C, in a humid chamber, for 72 h. Resazurin was then added (20 µL of 10% v/v), to reach a final concentration of 250 µM and plates were incubated for an additional 4 h. Live parasites are metabolically active and capable of reducing non-fluorescent resazurin (blue) to fluorescent resorufin (red). Fluorescence intensity is directly proportional to the number of viable cells. The fluorometric reading was carried out using the appropriate wavelengths (ex: 540 nm/em: 580 nm) in a spectrofluorometer Victor^2 Wallac (Perkin Elmer, Turku, Finland). At least two independent experiments were performed in duplicate. The effect of trivalent antimonial [SbIII, potassium antimonyl tartrate trihydrate, Sigma-Aldrich, (St. Louis, MO, USA)] was included as positive control of the assay.

[7] = tested on: L. (L.) amazonensis VE2000MM promastigotes; assay: Promastigote in vitro susceptibility (Alamar Blue/resazurin), patient isolate VE2000MM; assay type: cell-based, Leishmania amazonensis
Experimental: as §2

[8] = tested on: L. (L.) amazonensis LTB0016, VE98MR and VE2000MM promastigotes; assay: Plasma membrane potential (ΔΨp), bisoxonol fluorescence; assay type: cell-based, Leishmania amazonensis; conditions: VE2000MM promastigotes; valinomycin 1 µM
Experimental: To evaluate the plasma membrane potential (ΔΨp), the fluorescent compound, bisoxonol, bis[1,3-diethylthiobarbituric acid] trimethine oxonol, was used, as well as a method optimized by Padrón-Nieves et al.. Initially, calibration curves for each strain, using increasing concentrations of KCl (0.5 to 75 mM), were performed in the late log growth phase Leishmania promastigotes in the presence of the potassium ionophore valinomycin. By this procedure, fluorescence values could be transformed into millivolts (mV), applying the Nernst equation, ΔΨp = −59.4 log(120/[KCl]). […] After 10 min of incubation in the dark, fluorescence was measured in a Victor^2 Wallac spectrofluorometer (Perkin Elmer, Turku, Finland), using the appropriate wavelengths (ex: 540 nm/em: 580 nm). […] Once the corresponding calibration curve for each strain was obtained, the effect of compounds on the ΔΨp was evaluated. […] After 10 min of incubation in the dark, fluorescence was measured, using the appropriate wavelengths (ex: 540 nm/em: 580 nm). […] To transform the fluorescence values in millivolts (mV), calibration curves were prepared using increasing concentrations of KCl (0.5, 1.15, 2.5, 5, 10, 20, 40, and 75 mM). […]

[9] = LTB0016 promastigotes, 72 h, read-out: Promastigote (GI50) mean
[10] = J774.1 CC50 / LTB0016 promastigote GI50
[11] = Leishmania amazonensis, LTB0016 promastigotes, 72 h, read-out: Promastigote (GI50) mean

Q: For “3,28-diformylbetulin triazolodione [Compound 26]”, which “SI CC50/GI50” value [1] is on record?
A: 5.68

Q: And the growth inhibition [1]?
A: at least 75%

Q: What about the GI50 [1, 9] of the same compound?
A: 3.85 µM

Q: What about the CC50 [2] of the same compound?
A: 21.9 µM

Q: And the GI50 [3]?
A: < 1 µM

Q: And the “active concentration in L. (L.) braziliensis” value [3]?
A: less than 10 µM

Q: And the “inhibition of parasite migration” value [4]?
A: inhibited parasite migration at nano and picomolar concentrations

Q: What does the source list for C=C(C)[C@@H]1CC[C@]2(CO)CC[C@]3(C)[C@H](CC[C@@H]4[C@@]5(C)CC[C@H](O)C(C)(C)[C@@H]5CC[C@]43C)[C@@H]12 [Compound 1, betulin]?
A: SI CC50/GI50 [1, 10]: 1.30; inhibition at 50 µM ([1]; Leishmania amazonensis): ≥ 75%; GI50 [1, 11]: 19.3 µM; CC50 at 72 h [5]: 25.1 µM

Q: With C=C(C)[C@@H]1CC[C@]2(C(=O)O)CC[C@]3(C)[C@H](CC[C@@H]4[C@@]5(C)CC[C@H](O)C(C)(C)[C@@H]5CC[C@]43C)[C@@H]12 [Compound 11, betulinic acid] as the compound, how does the inhibition at 50 µM ([1]; Leishmania amazonensis) read?
A: 44%

Q: For C=C(C)[C@@H]1CC[C@]2(C=O)CC[C@]3(C)[C@H](CC[C@@H]4[C@@]5(C)CC[C@H](O)C(C)(C)[C@@H]5CC[C@]43C)[C@@H]12 [Compound 12, betulinic aldehyde], which growth inhibition [1] is on record?
A: 67%

Q: Which growth inhibition [1] does the source give for C=C(C)[C@@H]1CC[C@]2(C(=O)O)CC[C@]3(C)[C@H](CC[C@@H]4[C@@]5(C)CC[C@H](O)C(C)(C)[C@@H]5CC[C@]43C)[C@@H]12 [Compound 13] here?
A: did not show enough anti-leishmanial activity

Q: What does the source list for C=C(C)[C@@H]1CC[C@]2(C(=O)O)CC[C@]3(C)[C@H](CC[C@@H]4[C@@]5(C)CCC(=O)C(C)(C)[C@@H]5CC[C@]43C)[C@@H]12 [Compound 14]?
A: growth inhibition [1]: did not show enough anti-leishmanial activity; active concentration in L. (L.) braziliensis [3]: less than 10 µM

Q: Which “SI CC50/GI50” value [1, 10] does the source give for C=C(C)C1CCC2(C=NO)CCC3(C)C(CCC4C5(C)CCC(O)C(C)(C)C5CCC43C)C12 (stereo not shown) [Compound 17] here?
A: 14.23

Q: What about the growth inhibition [1] of the same compound?
A: at least 75%

Q: And the GI50 [1, 9]?
A: 1.35 µM

Q: And the CC50 [2]?
A: 19.3 µM

Q: And the “active concentration in L. (L.) braziliensis” value [3]?
A: less than 10 µM

Q: Which GI50 ([1]; data not detailed in the manuscript, parasite stage not stated, read-out: GI50 against K2Cr2O7, LTB0016) does the source give for [K+].[K+].[O]=[Cr](=[O])([O-])[O][Cr](=[O])(=[O])[O-] [Compound K2Cr2O7, K2Cr2O7] here?
A: 1060 µM

Q: And the GI50 ([6]; data not detailed in the manuscript, parasite stage not stated, read-out: GI50 against K2Cr2O7, VE98MR)?
A: > 2500 µM

Q: What about the GI50 ([7]; data not detailed in the manuscript, parasite stage not stated, read-out: GI50 against K2Cr2O7, VE2000MM) of the same compound?
A: > 2500 µM

Q: What does the source list for CCCCCCCCCCCCCCCCOP(=O)([O-])OCC[N+](C)(C)C [MLF, miltefosine, reference compound]?
A: GI50 [1, 11]: 4.17 µM; GI50 ([7]; Leishmania amazonensis, read-out: GI50 promastigotes VE2000MM): 5.13 µM

Q: Which GI50 ([1]; data not detailed in the manuscript, parasite stage not stated, read-out: GI50 against NaNO2, LTB0016) does the source give for O=NO [NaNO2, sodium nitrite] here?
A: 0.91 µM

Q: What about the GI50 ([6]; data not detailed in the manuscript, parasite stage not stated, read-out: GI50 against NaNO2, VE98MR) of the same compound?
A: 3.28 µM

Q: And the GI50 ([7]; data not detailed in the manuscript, parasite stage not stated, read-out: GI50 against NaNO2, VE2000MM)?
A: 4.79 µM

Q: Which GI50 [1, 9] does the source give for N=C(N)c1ccc(OCCCCCOc2ccc(C(=N)N)cc2)cc1 [PNT, reference compound] here?
A: 0.93 µM

Q: For CC(C)[C@@H]1NC(=O)[C@H](C)OC(=O)[C@@H](C(C)C)NC(=O)[C@@H](C(C)C)OC(=O)[C@H](C(C)C)NC(=O)[C@H](C)OC(=O)[C@@H](C(C)C)NC(=O)[C@@H](C(C)C)OC(=O)[C@H](C(C)C)NC(=O)[C@H](C)OC(=O)[C@@H](C(C)C)NC(=O)[C@@H](C(C)C)OC1=O [valinomycin, reference compound], which “Effect on plasma membrane potential (ΔΨp), VE2000MM” value [8] is on record?
A: not sensitive

Q: With “potassium antimonyl tartrate trihydrate [SbIII]” as the compound, how does the GI50 [1, 9] read?
A: 5.51 µM

Q: And the GI50 ([6]; promastigotes, read-out: GI50 promastigotes VE98MR)?
A: 9.08 µM

Q: What about the GI50 ([7]; promastigotes, read-out: GI50 promastigotes VE2000MM) of the same compound?
A: 13.6 µM
